Measurements reported in ChEMBL document CHEMBL1155392, “New adjuvants to enhance anticoagulant activity of warfarin” (Bioorg Med Chem Lett, 2010).
Calls of active or inactive are those of the source. No cut-off for these calls is given here.

Key:
Rattus norvegicus [1] = test: Anticoagulant activity in Sprague-Dawley rat assessed as change in factor 10 content in blood at 0.25 mg/kg, po after 4 days (reference value: 60.6%+/-3.0 %); assay type: functional
Rattus norvegicus [2] = test: Anticoagulant activity in Sprague-Dawley rat assessed as change in prothrombin time at 2.5 mg/kg, po after 4 days ([…]); assay type: functional
Rattus norvegicus [3] = test: Anticoagulant activity in Sprague-Dawley rat assessed as change in factor 7 content in blood at 2.5 mg/kg, po after 4 days (reference value: 400%+/-33.2%); assay type: functional
Rattus norvegicus [4] = test: Anticoagulant activity in Sprague-Dawley rat assessed as change in factor 10 content in blood at 2.5 mg/kg, po after 4 days (reference value: 60.6%+/-3.0 %); assay type: functional
Rattus norvegicus [5] = test: Anticoagulant activity in Sprague-Dawley rat assessed as change in prothrombin time at 0.025 mg/kg, po after 10 days ([…]); assay type: functional
Rattus norvegicus [6] = test: Anticoagulant activity in Sprague-Dawley rat assessed as change in factor 7 content in blood at 0.025 mg/kg, po after 10 days (reference value: 321.3%+/-14.7 %); assay type: functional
Rattus norvegicus [7] = test: Anticoagulant activity in Sprague-Dawley rat assessed as change in factor 10 content in blood at 0.025 mg/kg, po after 10 days (reference value: 58.1%+/-1.8 %); assay type: functional
Rattus norvegicus [8] = test: Anticoagulant activity in Sprague-Dawley rat assessed as change in prothrombin time at 0.25 mg/kg, po after 10 days (Rvb=12.9+/-0.7 sec); assay type: functional
Rattus norvegicus [9] = test: Anticoagulant activity in Sprague-Dawley rat assessed as change in factor 7 content in blood at 0.25 mg/kg, po after 10 days (reference value: 321.3%+/-14.7 %); assay type: functional
Rattus norvegicus [10] = test: Anticoagulant activity in Sprague-Dawley rat assessed as change in factor 10 content in blood at 0.25 mg/kg, po after 10 days (reference value: 58.1%+/-1.8 %); assay type: functional
Rattus norvegicus [11] = test: Anticoagulant activity in Sprague-Dawley rat assessed as change in prothrombin time at 2.5 mg/kg, po after 10 days (Rvb=12.9+/-0.7 sec); assay type: functional
Rattus norvegicus [12] = test: Anticoagulant activity in Sprague-Dawley rat assessed as reduction factor 7 content in blood at 2.5 mg/kg, po after 10 days (reference value: 321.3%+/-14.7 %); assay type: functional; set-up: scale not given: the % may be the effect or the level left
Rattus norvegicus [13] = test: Anticoagulant activity in Sprague-Dawley rat assessed as change in factor 10 content in blood at 2.5 mg/kg, po after 10 days (reference value: 58.1%+/-1.8 %); assay type: functional
Rattus norvegicus [14] = test: Anticoagulant activity in orally dosed Sprague-Dawley rat; assay type: functional, organism-based
Rattus norvegicus [15] = test: Potentiation of warfarin-induced anticoagulant activity in Sprague-Dawley rat assessed as change in prothrombin time at 2.5 mg/kg, po after 4 days (Rvb= 12.8+/-0.5 sec); assay type: functional
Rattus norvegicus [16] = test: Potentiation of warfarin-induced anticoagulant activity in Sprague-Dawley rat assessed as change in factor 7 level at 2.5 mg/kg, po after 4 days (reference value: 400 %+/-33.2%); assay type: functional
Rattus norvegicus [17] = test: Potentiation of warfarin-induced anticoagulant activity in Sprague-Dawley rat assessed as change in factor 10 level at 2.5 mg/kg, po after 4 days (Rvb =60.6%+/-3.0%); assay type: functional
Rattus norvegicus [18] = test: Potentiation of warfarin-induced anticoagulant activity in Sprague-Dawley rat assessed as change in factor 10 level at 2.5 mg/kg, po after 10 days (Rvb =58.1%+/-1.8%); assay type: functional
Rattus norvegicus [19] = test: Potentiation of warfarin-induced anticoagulant activity in Sprague-Dawley rat assessed as change in factor 7 level at 2.5 mg/kg, po after 10 days (reference value: 321.3 %+/-14.7%); assay type: functional
Rattus norvegicus [20] = test: Potentiation of warfarin-induced anticoagulant activity in Sprague-Dawley rat assessed as change in prothrombin time at 2.5 mg/kg, po after 10 days (Rvb= 12.9+/-0.7 sec); assay type: functional
Rattus norvegicus [21] = test: Anticoagulant activity in Sprague-Dawley rat assessed as change in prothrombin time at 0.025 mg/kg, po after 4 days (Rvb=12.8+/-0.5 sec); assay type: functional
Rattus norvegicus [22] = test: Anticoagulant activity in Sprague-Dawley rat assessed as change in factor 7 content in blood at 0.025 mg/kg, po after 4 days (reference value: 400%+/-33.2%); assay type: functional
Rattus norvegicus [23] = test: Anticoagulant activity in Sprague-Dawley rat assessed as change in factor 10 content in blood at 0.025 mg/kg, po after 4 days (reference value: 60.6%+/-3.0 %); assay type: functional
Rattus norvegicus [24] = species on record: Rattus norvegicus; test: Cytotoxicity in Sprague-Dawley rat; assay type: organism-based; details: in vivo
Rattus norvegicus [25] = test: Anticoagulant activity in Sprague-Dawley rat assessed as change in prothrombin time at 0.25 mg/kg, po after 4 days ([…]); assay type: functional
Rattus norvegicus [26] = test: Anticoagulant activity in Sprague-Dawley rat assessed as change in factor 7 content in blood at 0.25 mg/kg, po after 4 days (reference value: 400%+/-33.2%); assay type: functional

Structure (SMILES)	Activity (Rattus norvegicus [1]) [%]	PT (Rattus norvegicus [2]) [s]	Activity (Rattus norvegicus [3]) [%]	Activity (Rattus norvegicus [4]) [%]	PT (Rattus norvegicus [5]) [s]	Activity (Rattus norvegicus [6]) [%]	Activity (Rattus norvegicus [7]) [%]	PT (Rattus norvegicus [8]) [s]	Activity (Rattus norvegicus [9]) [%]	Activity (Rattus norvegicus [10]) [%]	PT (Rattus norvegicus [11]) [s]	Activity (Rattus norvegicus [12]) [%]	Activity (Rattus norvegicus [13]) [%]	Activity (Rattus norvegicus [14])	PT (Rattus norvegicus [15]) [s]	Activity (Rattus norvegicus [16]) [%]	Activity (Rattus norvegicus [17]) [%]	Activity (Rattus norvegicus [18]) [%]	PT (Rattus norvegicus [25]) [s]	Activity (Rattus norvegicus [26]) [%]	also measured
CC(=O)Oc1c2c(c(OC(C)=O)c3ccccc13)[C@@]1(C)C[C@]2(C)[C@]2(C)O[C@@]21C	61	12.7	395.5	61	11.6	350.3	64.2	11.6	295.2	59.8	11.6	285.8	61	inactive	12	264	58.8	3.6	11.6	334.3	Activity (Rattus norvegicus [19]): 18.4%; PT (Rattus norvegicus [20]): 108.4 s; PT (Rattus norvegicus [21]): 11.4 s; Activity (Rattus norvegicus [22]): 366.3%; Activity (Rattus norvegicus [23]): 73.3%; Activity (Rattus norvegicus [24]): Not Active
CC(=O)Oc1c2c(c(OC(C)=O)c3ccccc13)[C@]1(C)C=C[C@]2(C)C1	65.3	11.8	370.8	64.3	11.4	364	68	11.7	304.7	61.2	11.6	286.8	61	inactive	40.5	20.3	4.8	7.7	11.6	351.3	Activity (Rattus norvegicus [19]): 35%; PT (Rattus norvegicus [20]): 35.4 s; PT (Rattus norvegicus [21]): 11.2 s; Activity (Rattus norvegicus [22]): 346.8%; Activity (Rattus norvegicus [23]): 74.5%; Activity (Rattus norvegicus [24]): Not Active
CC(=O)CC(c1ccccc1)c1c(O)c2ccccc2oc1=O (stereo not drawn) [WARFARIN]	10	–	–	–	–	–	–	24.4	56.2	14.9	–	–	–	–	–	–	–	–	37	29.5	–
